Test results reported in patent publication US20050250715A1, “Remedy” (priority 2002, published 2005).

Tests used:
mouse = assay: Oral toxicity in mouse; format: in vivo; conditions: mouse (male, 6-week old), orally administered at 1000 mg per kg body weight
NGF = assay: Enhancing activity for NGF production in L-M cells (NGF in culture medium by enzyme immunoassay); format: cell-based, murine; conditions: 20 hours; for Amount of NGF Production (%): control = 100%
Description: (2) The enhancing activity for NGF production of the compound a was assayed. L-M cells (ATCC CCL-1.2) from murine fibroblasts were suspended in an M199 medium (manufactured by Bio Whittaker) containing 0.5% bactopeptone (manufactured by Gibco) so as to have a concentration of 1.5×10^5 cells/mL. The suspension was put in a 96 well plate in an amount of 0.1 mL each well, and the cells were aseptically cultured. After culturing the cells for 3 days, the medium was removed therefrom, and exchanged with an M199 medium containing 0.5% bovine serum albumin (manufactured by Sigma). The compound a was added thereto, and the cells were cultured for 20 hours. After the termination of the culture, the concentration of NGF in the culture medium was assayed by an enzyme immunoassay method (NGF Emax Immuno Assay System, manufactured by Promega). The experiment was carried out twice, and an average value was taken. […] The amount of NGF production of the control was 0.739 ng/mL. As to the control, the concentration in the culture medium was determined in the same manner except that the compound a was not added. It is the same as that of the following examples.

**Q.** `CC1(C)[C@@H](O[C@H]2O[C@H](C(=O)O)[C@@H](O)[C@H](O)[C@H]2O[C@@H]2O[C@H](C(=O)O)[C@@H](O)[C@H](O)[C@H]2O)CC[C@]2(C)[C@H]3C(=O)C=C4[C@@H]5C[C@@](C)(C(=O)O)CC[C@]5(C)CC[C@@]4(C)[C@]3(C)CC[C@@H]12` [Glycyrrhizin, glycyrrhizin, reference compound] was tested. Which toxicity (mouse) did it give?
**A.** no toxicity is found

**Q.** And the “enhancing activity for NGF production (result in words)” value (NGF)?
**A.** has enhancing activity for NGF production

**Q.** And the “Amount of NGF Production (%)” value (NGF; Table 4: Concentration of Sample 0.25 mM)?
**A.** 113.0%

**Q.** What about the “Amount of NGF Production (%)” value (NGF; Table 4: Concentration of Sample 0.5 mM) of the same compound?
**A.** 204.3%

**Q.** And the “Amount of NGF Production (%)” value (NGF; Table 4: Concentration of Sample 1.0 mM)?
**A.** 261.0%

**Q.** Which results are given for `CC(=O)OC1COC(OC2C(O)COC(OC3C(O)C(C)(C)CC4C5=CCC6C7(C)CCC(OC8OC(C(=O)O)C(O)C(O)C8OC8OC(CO)C(O)C(O)C8OC8OC(CO)C(O)C(O)C8O)C(C)(CO)C7CCC6(C)C5(C)CCC43C)C2O)C(OC(C)=O)C1OC(C)=O` [Compound m, 3-O-[β-D-glucopyranosyl(1→2)-β-D-galactopyranosyl-(1→2)-β-D-glucuronopyranosyl]-22-O-[2,3,4-tri-O-acetyl-β-D-xylopyranosyl(1→3)-α-L-arabinopyranosyl]soyasapogenol A]?
**A.** enhancing activity for NGF production (result in words) (NGF): has enhancing activity for NGF production; Amount of NGF Production (%) (NGF; Concentration of Sample 0.5 mM): 263.3%; Amount of NGF Production (%) (NGF; Concentration of Sample 1.0 mM): 250.9%; Amount of NGF Production (%) (NGF; Concentration of Sample 2 mM): 233.4%
